Test: Solubility of the formulation components in water and alcohol
Assay type: physicochemical
Conditions: 200 proof ethanol, filtered through a 0.45 micrometer PTFE filter
Excerpt: Dyes can also be used and chosen to be soluble in both water and alcohol to produce a dark colored solution upon extraction and filtering as a visual deterrent to abuse. The formulation can include the following components listed in the Table 8 below, including a number of different dyes.

Structure (SMILES): CCN(Cc1cccc(S(=O)(=O)[O-])c1)c1ccc(C(=C2C=CC(=[N+](CC)Cc3cccc(S(=O)(=O)[O-])c3)C=C2)c2ccccc2S(=O)(=O)[O-])cc1.[Na+].[Na+] [FD&C Blue #1]
- Alcohol Solubility (Tested): Yes

Structure (SMILES): COc1cc(S(=O)(=O)[O-])c(C)cc1N=Nc1c(O)ccc2cc(S(=O)(=O)[O-])ccc12.[Na+].[Na+] [FD&C Red #40]
- Alcohol Solubility (Tested): Yes

Structure (SMILES): COc1ccc2c3c1O[C@H]1C(=O)CC[C@@]4(O)[C@@H](C2)N(C)CC[C@]314.Cl [Oxycodone HCl, reference compound]
- Alcohol Solubility (Tested): Yes

From patent US9707184B2, “Immediate release abuse deterrent liquid fill dosage form” (priority 2014, dated 2017)
